Source: the Biogen ADME set (Fang et al. 2023)
≈ marks a conversion by molar mass, not a printed value.

Settings: for aqueous solubility: pH 6.8

| Compound | intrinsic clearance, human liver microsomes [mL/min/kg] | intrinsic clearance, rat liver microsomes [mL/min/kg] | aqueous solubility [µg/mL] | MDR1-MDCK efflux ratio | fraction unbound, human plasma | fraction unbound, rat plasma |
| --- | --- | --- | --- | --- | --- | --- |
| CC(=O)c1ccc(-c2ccc(-c3nn[nH]n3)cc2)cc1 | 11.1 | 52.7 |  |  |  |  |
| CN(C)CCn1ccc2cc(NC(=O)c3ccc(=O)[nH]n3)ccc21 |  |  | 53.5 (≈ 164 µM) |  |  |  |
| CCOC(=S)SCC(=O)Nc1nc(-c2ccc(C3CCCCC3)cc2)cs1 | 267 | 1390 | 2.18 (≈ 5.18 µM) | 0.229 |  |  |
| CN1CCN(S(=O)(=O)c2ccc(C(F)(F)F)nc2)C(C)(C)C1 | 42.2 | 661 |  | 0.642 |  |  |
| COc1cccc(C(=O)NCC(=O)Nc2cccc3c2CCCC3)c1 | 57.9 | 607 |  | 1.3 |  |  |
| COc1ccc(S(=O)(=O)N2CCC(N3CCC(C)CC3)CC2)cc1 |  |  | 56.4 (≈ 160 µM) |  |  |  |
| Cc1cn(CCN2CCN(c3ccccc3-c3cc(C#N)cc(C(=O)NCCCN4CCCC4)c3)CC2)c2ccccc12 | 120 | 190 | 31.7 (≈ 55.2 µM) | 0.338 |  |  |
| CCc1nnc(NC(=O)Cc2c(C)noc2C)s1 | ≤ 4.74 | ≤ 10.7 | 44.6 (≈ 167 µM) | 12.8 |  |  |
| C=CC(=O)Nc1cccc(Oc2nc(Nc3ccc(N4CCN(C)CC4)cc3)nc3ccsc23)c1 | 9.79 | 210 |  | 85.5 | 0.00892 | 0.00491 |
| COc1cccc(-c2nnn(-c3ncnc4sc5c(c34)CCC5)n2)c1 |  |  | 0.26 (≈ 0.742 µM) |  |  |  |
| CCCC(=O)Nc1ccc(C(=O)N(C)C)cc1 | 22.2 | 50.7 |  | 1.41 |  |  |
| CN1CCc2nc(C(=O)N[C@H]3C[C@@H](C(=O)N(C)C)CC[C@@H]3NC(=O)C(=O)Nc3ccc(Cl)cn3)sc2C1 | ≤ 4.74 | ≤ 10.7 |  | 178 |  |  |
| Cc1c(C(=O)NC2CCN(CC3CCCCC3)CC2)cnn1C | ≤ 4.74 | ≤ 10.7 | 48.9 (≈ 154 µM) | 6.82 |  |  |
| Cc1cc2cc(C(=O)N(Cc3ccc4c(c3)OCO4)C3CC3)ccc2o1 | 127 | 1730 | 11.7 (≈ 33.6 µM) | 0.28 |  |  |
| CC1(C)Cc2cc(CN3CCC4(CC3)NC(=O)N(Cc3ccccc3)C4=O)ccc2O1 | 55.8 | 294 | 36.4 (≈ 86.6 µM) | 7.73 |  |  |
| Cc1nc(C)c(CNc2ncnn2C)s1 | ≤ 4.74 | 22.5 |  | 4 |  |  |
| Cc1nonc1C(=O)NCCc1c[nH]c2cccc(C3(O)CCOCC3)c12 |  |  | 61.2 (≈ 165 µM) |  |  |  |
| Cc1ccc(-c2ccc3c(ccc4sc5c(c43)NC[C@@H](C)NC5=O)n2)cn1 |  |  | 0.2 (≈ 0.534 µM) | 5.49 |  |  |
| O=C(CN1CCC(c2ccccc2)CC1)N1CCNC1=O | ≤ 4.74 | 65.2 | 49.1 (≈ 171 µM) | 1.06 |  |  |
| FC(F)(F)COc1ccc(CN2CCc3c(cnn3-c3ccccc3)C2)nn1 | 22.6 | 79.3 | 52.1 (≈ 134 µM) | 0.59 |  |  |
| CN(C)CC(=O)N1CCC(c2ccc(NC(=O)c3nc(C#N)c[nH]3)c(C3=CCCCC3)c2)CC1 | 12.4 | 56.3 |  | 42.6 |  |  |

| Compound | intrinsic clearance, human liver microsomes [mL/min/kg] | intrinsic clearance, rat liver microsomes [mL/min/kg] | aqueous solubility [µg/mL] | MDR1-MDCK efflux ratio | fraction unbound, human plasma | fraction unbound, rat plasma |
| --- | --- | --- | --- | --- | --- | --- |
| O=C(NN1CCOCC1)c1ccc(Cl)c(Cl)c1 | ≤ 4.74 | ≤ 10.7 |  | 0.691 |  |  |
| CN(CCOCCOc1ccccc1-c1ccccc1)Cc1ccccc1.O=C(O)C(=O)O | 216 | 1520 | 29 | 1.82 |  |  |
| Cc1cc(C)c2ccc(C(=O)N3CCN(c4nc[nH]n4)CC3)cc2n1 | ≤ 4.74 | 16.8 |  | 70.8 |  |  |
| Cc1cc(C(=O)NCC2CC2)n2nccc2n1 | 25.7 | 74.9 | 50.4 (≈ 219 µM) | 0.576 |  |  |
| CC1CCC(O)(CSc2nnnn2C2CC2)CC1 (configuration not stated) | 12.7 | 355 |  | 0.616 |  |  |
| COc1ccc(-c2nc(C3CCN(C(=O)c4sc(C)nc4C)CC3)[nH]c2C(N)=O)cc1 | ≤ 4.74 | 39.4 | 61.8 (≈ 141 µM) | 42.1 |  |  |
| CN(Cc1cnn(C)c1)c1ncnc2c1oc1ccccc12 | 19.7 | 505 | 42.5 (≈ 145 µM) | 0.969 |  |  |
| Fc1cccc(OC2CCN(Cc3nc4ccccc4[nH]3)CC2)c1 | 93.3 | 1960 | 54.9 (≈ 169 µM) | 0.816 |  |  |
| CCn1nnc2cc(C(=O)Nc3cccc(C#N)c3)ccc21 |  |  | 1 (≈ 3.43 µM) |  |  |  |
| COc1ccc(OCc2n[nH]c(-c3ncoc3C(C)C)n2)cc1 | 17.8 | 514 |  | 0.675 |  |  |
| Fc1ccc(-c2ccc3c(c2)[nH]c2ccncc23)cn1 | 16.8 | 162 |  | 0.469 | 0.045 | 0.0437 |
| O=C(CCc1ccccc1)N1CCC(c2cccc(Cc3ccc(F)cc3)n2)CC1 | 1000 | 4270 | 4.5 (≈ 11.2 µM) | 0.727 |  |  |
| O=C(Cn1ncc2ccccc21)Nc1ccc2c(c1)CCO2 | 13.7 | 210 |  |  |  |  |
| CCC(=O)NCc1cc(C2CC2)n(C2CCCC2)n1 | 10.1 | 218 | 25 (≈ 95.7 µM) | 1.05 |  |  |
| Fc1ccc(Nc2nc(N3CCCCC3)c3nccnc3n2)cc1 |  |  | 0.12 (≈ 0.37 µM) | 0.305 |  |  |
| O=C(C1CCCN(S(=O)(=O)c2ccccc2)C1)N1CCc2ccccc2C1 (configuration not stated) | 240 | 3170 | 33.9 (≈ 88 µM) |  |  |  |
| Cc1c[nH]c(CNCc2ccccc2CC(C)C)n1 | 35.6 | 2700 |  | 3.79 |  |  |
| O=C(C1CC1)N1CCC(CNS(=O)(=O)N2CCCCCC2)CC1 | 40.4 | 1320 |  | 15.2 |  |  |
| CCCc1cc(C(=O)Nc2ccc(-c3nnc(C)[nH]3)cc2)no1 | 131 | 290 |  | 0.865 |  |  |
| CNCCN1CCC(OCc2ccccc2)CC1 | 46.5 | 143 | 55 (≈ 222 µM) |  |  |  |
| Cc1nccc(-c2ccc(-c3noc(CN4CCOCC4)n3)cc2)n1 | ≤ 4.74 | 106 | 61 (≈ 181 µM) | 0.677 |  |  |
